Data taken from the kinase profiling compilation of Christmann-Franck et al. (2016).

What was measured:
Assay in all cases: radiometric filter-binding kinase assay
DDR2 (human) = DDR2 (human) (UniProt Q16832); conditions: compound 1.0 µM
CHEK2 (human) = CHEK2 (human) (UniProt O96017)
SIK2 (human) = SIK2 (human) (UniProt Q9H0K1)
[1] = tested on: OXSR1 (human), O95747 [T185E]
TSSK1B (human) = TSSK1B (human) (UniProt Q9BXA7)
TESK1 (human) = TESK1 (human) (UniProt Q15569)
WNK1 (human) = WNK1 (human) (UniProt Q9H4A3)
TLK1 (human) = TLK1 (human) (UniProt Q9UKI8)
TTBK1 (human) = TTBK1 (human) (UniProt Q5TCY1)
IRAK1 (human) = IRAK1 (human) (UniProt P51617)
TEK (human) = TEK (human) (UniProt Q02763)
MARK3 (human) = MARK3 (human) (UniProt P27448)
SIK3 (human) = SIK3 (human) (UniProt Q9Y2K2)
STK33 (human) = STK33 (human) (UniProt Q9BYT3)
CDK9 CCNT1 (human) = CDK9 CCNT1 (human) (UniProt P50750+O60563)
STK24 (human) = STK24 (human) (UniProt Q9Y6E0)
PTK6 (human) = PTK6 (human) (UniProt Q13882)
CSNK1G2 (human) = CSNK1G2 (human) (UniProt P78368)
EIF2AK3 (human) = EIF2AK3 (human) (UniProt Q9NZJ5)
ABL1 (human) = ABL1 (human) (UniProt P00519)
PRKCG (human) = PRKCG (human) (UniProt P05129)
STK16 (human) = STK16 (human) (UniProt O75716)
ZAP70 (human) = ZAP70 (human) (UniProt P43403)
ZAP70 (human), sequence (P43403 whole entry, looked up): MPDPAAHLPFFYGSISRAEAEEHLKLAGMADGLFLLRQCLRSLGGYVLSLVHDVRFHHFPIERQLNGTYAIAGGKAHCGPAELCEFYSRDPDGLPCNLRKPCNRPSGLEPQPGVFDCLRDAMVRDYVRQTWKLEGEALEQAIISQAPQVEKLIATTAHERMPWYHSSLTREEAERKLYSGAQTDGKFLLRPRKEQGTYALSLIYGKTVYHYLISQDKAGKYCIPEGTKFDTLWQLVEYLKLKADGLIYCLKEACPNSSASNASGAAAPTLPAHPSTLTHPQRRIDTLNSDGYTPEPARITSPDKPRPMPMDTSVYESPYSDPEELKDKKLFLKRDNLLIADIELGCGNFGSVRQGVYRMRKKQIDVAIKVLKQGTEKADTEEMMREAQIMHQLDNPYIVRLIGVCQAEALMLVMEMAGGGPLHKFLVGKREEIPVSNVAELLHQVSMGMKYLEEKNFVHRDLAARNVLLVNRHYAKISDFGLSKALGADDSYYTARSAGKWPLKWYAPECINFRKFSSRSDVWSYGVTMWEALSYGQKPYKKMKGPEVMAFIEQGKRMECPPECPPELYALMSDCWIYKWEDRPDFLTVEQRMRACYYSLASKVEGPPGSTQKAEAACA

TSSK1B (human), sequence (Q9BXA7 whole entry, looked up): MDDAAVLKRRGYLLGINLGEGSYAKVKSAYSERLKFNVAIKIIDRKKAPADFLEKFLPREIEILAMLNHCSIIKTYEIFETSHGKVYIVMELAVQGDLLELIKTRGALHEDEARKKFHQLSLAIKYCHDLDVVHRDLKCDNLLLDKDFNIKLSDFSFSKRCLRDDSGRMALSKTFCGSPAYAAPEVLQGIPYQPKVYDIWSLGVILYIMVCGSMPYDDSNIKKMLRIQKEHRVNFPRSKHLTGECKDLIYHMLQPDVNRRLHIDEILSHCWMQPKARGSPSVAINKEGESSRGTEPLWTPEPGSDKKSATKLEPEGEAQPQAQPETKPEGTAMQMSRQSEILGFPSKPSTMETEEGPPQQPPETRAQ
OXSR1 (human), O95747 [T185E], sequence (O95747 whole entry T185E, looked up): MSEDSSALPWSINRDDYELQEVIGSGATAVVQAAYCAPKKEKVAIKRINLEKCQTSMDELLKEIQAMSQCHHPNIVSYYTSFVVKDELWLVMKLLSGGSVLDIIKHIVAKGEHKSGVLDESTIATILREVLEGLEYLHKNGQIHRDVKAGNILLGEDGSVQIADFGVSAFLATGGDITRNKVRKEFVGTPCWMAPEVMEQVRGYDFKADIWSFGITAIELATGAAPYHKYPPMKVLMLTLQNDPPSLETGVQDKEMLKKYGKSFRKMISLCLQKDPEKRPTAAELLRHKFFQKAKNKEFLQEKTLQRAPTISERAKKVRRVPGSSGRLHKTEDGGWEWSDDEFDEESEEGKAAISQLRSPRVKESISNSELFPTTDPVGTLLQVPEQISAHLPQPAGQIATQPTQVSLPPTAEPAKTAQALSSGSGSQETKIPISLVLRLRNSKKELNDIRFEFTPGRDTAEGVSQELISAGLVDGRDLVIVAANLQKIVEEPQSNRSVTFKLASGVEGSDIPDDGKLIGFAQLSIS
IRAK1 (human), sequence (P51617 whole entry, looked up): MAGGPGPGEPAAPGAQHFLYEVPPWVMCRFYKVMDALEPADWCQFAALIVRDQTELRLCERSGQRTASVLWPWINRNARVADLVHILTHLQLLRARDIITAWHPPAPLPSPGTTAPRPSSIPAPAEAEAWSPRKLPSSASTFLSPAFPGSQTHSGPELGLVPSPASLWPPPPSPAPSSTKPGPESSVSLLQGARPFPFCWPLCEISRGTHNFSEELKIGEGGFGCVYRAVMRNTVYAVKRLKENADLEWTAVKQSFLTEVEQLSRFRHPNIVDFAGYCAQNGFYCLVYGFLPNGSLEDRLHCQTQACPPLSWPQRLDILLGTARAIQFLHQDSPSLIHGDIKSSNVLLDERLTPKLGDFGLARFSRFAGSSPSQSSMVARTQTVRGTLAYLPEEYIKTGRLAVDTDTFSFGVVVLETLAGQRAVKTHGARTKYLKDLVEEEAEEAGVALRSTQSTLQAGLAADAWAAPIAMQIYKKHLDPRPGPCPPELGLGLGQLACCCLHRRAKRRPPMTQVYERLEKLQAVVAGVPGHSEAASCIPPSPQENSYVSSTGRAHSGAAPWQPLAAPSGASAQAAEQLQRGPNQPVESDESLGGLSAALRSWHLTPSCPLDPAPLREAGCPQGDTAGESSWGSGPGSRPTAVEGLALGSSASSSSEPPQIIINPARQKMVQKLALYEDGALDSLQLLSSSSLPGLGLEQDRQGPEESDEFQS
TESK1 (human), sequence (Q15569 whole entry, looked up): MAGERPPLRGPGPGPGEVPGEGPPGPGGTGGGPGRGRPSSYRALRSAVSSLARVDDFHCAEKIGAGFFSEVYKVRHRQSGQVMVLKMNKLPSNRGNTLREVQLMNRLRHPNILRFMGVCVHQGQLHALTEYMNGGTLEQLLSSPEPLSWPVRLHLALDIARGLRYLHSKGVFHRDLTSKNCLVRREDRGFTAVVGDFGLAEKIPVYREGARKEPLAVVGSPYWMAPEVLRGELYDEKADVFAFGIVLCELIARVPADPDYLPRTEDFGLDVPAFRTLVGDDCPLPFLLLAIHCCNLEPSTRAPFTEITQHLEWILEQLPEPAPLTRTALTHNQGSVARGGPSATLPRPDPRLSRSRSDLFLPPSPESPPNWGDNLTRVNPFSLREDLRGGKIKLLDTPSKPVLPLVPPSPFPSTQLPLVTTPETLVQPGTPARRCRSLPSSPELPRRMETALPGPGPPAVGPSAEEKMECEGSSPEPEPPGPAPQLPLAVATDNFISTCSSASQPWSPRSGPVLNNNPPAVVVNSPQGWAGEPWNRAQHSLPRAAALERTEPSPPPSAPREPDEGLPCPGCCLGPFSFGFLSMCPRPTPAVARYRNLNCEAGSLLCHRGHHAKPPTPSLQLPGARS
TLK1 (human), sequence (Q9UKI8 whole entry, looked up): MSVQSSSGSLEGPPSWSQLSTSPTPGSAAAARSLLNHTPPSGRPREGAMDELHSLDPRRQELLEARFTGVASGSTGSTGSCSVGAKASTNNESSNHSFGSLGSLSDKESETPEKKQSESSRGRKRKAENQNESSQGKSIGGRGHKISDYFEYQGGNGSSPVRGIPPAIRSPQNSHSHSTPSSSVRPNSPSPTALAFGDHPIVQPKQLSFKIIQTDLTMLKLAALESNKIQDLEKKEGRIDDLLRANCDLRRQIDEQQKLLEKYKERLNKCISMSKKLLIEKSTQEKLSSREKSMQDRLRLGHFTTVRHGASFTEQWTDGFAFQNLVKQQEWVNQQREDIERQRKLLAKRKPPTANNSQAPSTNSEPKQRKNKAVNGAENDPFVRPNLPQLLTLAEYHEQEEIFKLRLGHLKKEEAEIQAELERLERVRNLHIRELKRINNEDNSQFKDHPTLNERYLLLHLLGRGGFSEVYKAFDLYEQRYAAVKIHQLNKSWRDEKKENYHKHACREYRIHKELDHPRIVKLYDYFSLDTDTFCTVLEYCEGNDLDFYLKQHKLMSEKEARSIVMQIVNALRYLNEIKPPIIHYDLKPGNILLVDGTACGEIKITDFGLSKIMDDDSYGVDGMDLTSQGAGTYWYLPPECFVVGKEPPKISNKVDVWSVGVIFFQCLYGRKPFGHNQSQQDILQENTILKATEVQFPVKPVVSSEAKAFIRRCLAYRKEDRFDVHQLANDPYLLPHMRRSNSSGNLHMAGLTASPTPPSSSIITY
CHEK2 (human), sequence (O96017 whole entry, looked up): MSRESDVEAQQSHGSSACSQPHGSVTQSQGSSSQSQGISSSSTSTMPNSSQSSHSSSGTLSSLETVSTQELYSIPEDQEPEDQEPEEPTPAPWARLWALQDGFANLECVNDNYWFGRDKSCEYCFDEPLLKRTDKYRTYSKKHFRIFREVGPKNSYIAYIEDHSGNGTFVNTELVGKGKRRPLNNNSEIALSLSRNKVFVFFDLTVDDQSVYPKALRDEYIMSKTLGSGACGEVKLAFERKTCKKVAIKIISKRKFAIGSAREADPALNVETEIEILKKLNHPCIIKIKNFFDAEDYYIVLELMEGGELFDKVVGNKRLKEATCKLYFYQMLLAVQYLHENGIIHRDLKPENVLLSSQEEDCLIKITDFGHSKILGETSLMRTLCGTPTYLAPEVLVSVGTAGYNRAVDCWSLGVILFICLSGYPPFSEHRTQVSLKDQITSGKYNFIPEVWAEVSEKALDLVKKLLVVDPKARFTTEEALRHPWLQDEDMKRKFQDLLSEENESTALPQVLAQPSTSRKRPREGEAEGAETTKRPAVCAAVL

SMILES: CNc1nc(-c2ccc3c(N)n[nH]c3c2)cc(N2C[C@@H](C(=O)NC3CCCCC3)CC[C@H]2C)n1
- residual activity (DDR2 (human)): 107%
- residual activity (CHEK2 (human); compound 0.1 µM): 121%
- residual activity (CHEK2 (human); compound 1.0 µM): 96%
- residual activity (CHEK2 (human); compound 10.0 µM): 51%
- residual activity (SIK2 (human); compound 1.0 µM): 106%
- residual activity (SIK2 (human); compound 10.0 µM): 78%
- residual activity ([1]; compound 1.0 µM): 112%
- residual activity ([1]; compound 10.0 µM): 103%
- residual activity (TSSK1B (human); compound 1.0 µM): 88%
- residual activity (TSSK1B (human); compound 10.0 µM): 64%
- residual activity (TESK1 (human); compound 1.0 µM): 91%
- residual activity (TESK1 (human); compound 10.0 µM): 101%
- residual activity (WNK1 (human); compound 1.0 µM): 109%
- residual activity (WNK1 (human); compound 10.0 µM): 104%
- residual activity (TLK1 (human); compound 1.0 µM): 101%
- residual activity (TLK1 (human); compound 10.0 µM): 115%
- residual activity (TTBK1 (human); compound 1.0 µM): 112%
- residual activity (TTBK1 (human); compound 10.0 µM): 99%
- residual activity (IRAK1 (human); compound 1.0 µM): 105%
- residual activity (IRAK1 (human); compound 10.0 µM): 106%
- residual activity (TEK (human); compound 1.0 µM): 105%
- residual activity (TEK (human); compound 10.0 µM): 76%
- residual activity (MARK3 (human); compound 0.01 µM): 113%
- residual activity (MARK3 (human); compound 0.1 µM): 109%
- residual activity (MARK3 (human); compound 1.0 µM): 88%
- residual activity (MARK3 (human); compound 10.0 µM): 87%
- residual activity (SIK3 (human); compound 1.0 µM): 76%
- residual activity (SIK3 (human); compound 10.0 µM): 58%
- residual activity (STK33 (human); compound 1.0 µM): 89%
- residual activity (STK33 (human); compound 10.0 µM): 43%
- residual activity (CDK9 CCNT1 (human); compound 1.0 µM): 92%
- residual activity (CDK9 CCNT1 (human); compound 10.0 µM): 100%
- residual activity (STK24 (human); compound 1.0 µM): 110%
- residual activity (STK24 (human); compound 10.0 µM): 110%
- residual activity (PTK6 (human); compound 1.0 µM): 127%
- residual activity (PTK6 (human); compound 10.0 µM): 116%
- residual activity (CSNK1G2 (human); compound 1.0 µM): 101%
- residual activity (CSNK1G2 (human); compound 10.0 µM): 97%
- residual activity (EIF2AK3 (human); compound 1.0 µM): 100%
- residual activity (EIF2AK3 (human); compound 10.0 µM): 100%
- residual activity (ABL1 (human); compound 1.0 µM): 116%
- residual activity (ABL1 (human); compound 10.0 µM): 100%
- residual activity (PRKCG (human); compound 10.0 µM): 87%
- residual activity (STK16 (human); compound 1.0 µM): 105%
- residual activity (STK16 (human); compound 10.0 µM): 104%
- residual activity (ZAP70 (human); compound 1.0 µM): 98%

SMILES: Cc1cc(N=Nc2cc(S(=O)(=O)O)c(C)cc2C)c(N)cc1O
- residual activity (CHEK2 (human); compound 100.0 µM): 100%
- residual activity ([1]; compound 100.0 µM): 97%
- residual activity (TSSK1B (human); compound 100.0 µM): 107%
- residual activity (TESK1 (human); compound 100.0 µM): 73%
- residual activity (TLK1 (human); compound 100.0 µM): 108%
- residual activity (TTBK1 (human); compound 100.0 µM): 94%
- residual activity (IRAK1 (human); compound 100.0 µM): 104%
- residual activity (TEK (human); compound 100.0 µM): 103%
- residual activity (MARK3 (human); compound 100.0 µM): 96%
- residual activity (STK33 (human); compound 100.0 µM): 107%
- residual activity (PTK6 (human); compound 100.0 µM): 100%
- residual activity (EIF2AK3 (human); compound 100.0 µM): 94%
- residual activity (ABL1 (human); compound 100.0 µM): 92%
- residual activity (PRKCG (human); compound 100.0 µM): 55%
- residual activity (STK16 (human); compound 100.0 µM): 111%
- residual activity (ZAP70 (human); compound 100.0 µM): 103%

SMILES: C=CC(=O)N1CCC[C@@H](n2nc(-c3ccc(Oc4ccccc4)cc3)c3c(N)ncnc32)C1
- residual activity (CHEK2 (human); compound 0.1 µM): 92%
- residual activity (CHEK2 (human); compound 1.0 µM): 77%
- residual activity (CHEK2 (human); compound 10.0 µM): 35%
- residual activity ([1]; compound 0.1 µM): 96%
- residual activity ([1]; compound 1.0 µM): 96%
- residual activity ([1]; compound 10.0 µM): 82%
- residual activity (TSSK1B (human); compound 0.1 µM): 105%
- residual activity (TSSK1B (human); compound 1.0 µM): 108%
- residual activity (TSSK1B (human); compound 10.0 µM): 68%
- residual activity (TESK1 (human); compound 0.1 µM): 69%
- residual activity (TESK1 (human); compound 1.0 µM): 71%
- residual activity (TESK1 (human); compound 10.0 µM): 38%
- residual activity (TLK1 (human); compound 1.0 µM): 99%
- residual activity (TTBK1 (human); compound 0.1 µM): 78%
- residual activity (TTBK1 (human); compound 1.0 µM): 100%
- residual activity (TTBK1 (human); compound 10.0 µM): 81%
- residual activity (IRAK1 (human); compound 0.1 µM): 108%
- residual activity (IRAK1 (human); compound 1.0 µM): 115%
- residual activity (TEK (human); compound 0.1 µM): 71%
- residual activity (TEK (human); compound 1.0 µM): 34%
- residual activity (TEK (human); compound 10.0 µM): 9%
- residual activity (MARK3 (human); compound 0.1 µM): 98%
- residual activity (MARK3 (human); compound 1.0 µM): 94%
- residual activity (MARK3 (human); compound 10.0 µM): 76%
- residual activity (STK33 (human); compound 0.1 µM): 97%
- residual activity (STK33 (human); compound 1.0 µM): 84%
- residual activity (PTK6 (human); compound 0.1 µM): 10%
- residual activity (PTK6 (human); compound 1.0 µM): 4%
- residual activity (PTK6 (human); compound 10.0 µM): 8%
- residual activity (EIF2AK3 (human); compound 0.1 µM): 110%
- residual activity (EIF2AK3 (human); compound 1.0 µM): 81%
- residual activity (EIF2AK3 (human); compound 10.0 µM): 28%
- residual activity (ABL1 (human); compound 0.1 µM): 87%
- residual activity (ABL1 (human); compound 1.0 µM): 80%
- residual activity (ABL1 (human); compound 10.0 µM): 39%
- residual activity (PRKCG (human); compound 0.1 µM): 85%
- residual activity (PRKCG (human); compound 1.0 µM): 104%
- residual activity (PRKCG (human); compound 10.0 µM): 99%
- residual activity (STK16 (human); compound 0.1 µM): 99%
- residual activity (STK16 (human); compound 1.0 µM): 117%
- residual activity (STK16 (human); compound 10.0 µM): 104%
- residual activity (ZAP70 (human); compound 0.1 µM): 93%
- residual activity (ZAP70 (human); compound 1.0 µM): 107%
- residual activity (ZAP70 (human); compound 10.0 µM): 101%

SMILES: COc1ccc(-n2ncc3cnc(Nc4cc(OC)c(OC)c(OCCCN5CCN(C)CC5)c4)nc32)cc1
- residual activity (CHEK2 (human); compound 0.1 µM): 48%
- residual activity (CHEK2 (human); compound 1.0 µM): 12%
- residual activity ([1]; compound 0.1 µM): 101%
- residual activity ([1]; compound 1.0 µM): 71%
- residual activity (TSSK1B (human); compound 0.1 µM): 31%
- residual activity (TSSK1B (human); compound 1.0 µM): 5%
- residual activity (TESK1 (human); compound 0.1 µM): 59%
- residual activity (TESK1 (human); compound 1.0 µM): 24%
- residual activity (TLK1 (human); compound 0.1 µM): 79%
- residual activity (TLK1 (human); compound 1.0 µM): 39%
- residual activity (TTBK1 (human); compound 0.1 µM): 104%
- residual activity (TTBK1 (human); compound 1.0 µM): 102%
- residual activity (IRAK1 (human); compound 0.1 µM): 19%
- residual activity (IRAK1 (human); compound 1.0 µM): 5%
- residual activity (TEK (human); compound 0.1 µM): 60%
- residual activity (TEK (human); compound 1.0 µM): 11%
- residual activity (MARK3 (human); compound 0.1 µM): 41%
- residual activity (MARK3 (human); compound 1.0 µM): 16%
- residual activity (STK33 (human); compound 0.1 µM): 30%
- residual activity (STK33 (human); compound 1.0 µM): 23%
- residual activity (PTK6 (human); compound 0.1 µM): 46%
- residual activity (PTK6 (human); compound 1.0 µM): 6%
- residual activity (EIF2AK3 (human); compound 1.0 µM): 31%
- residual activity (ABL1 (human); compound 0.1 µM): 31%
- residual activity (ABL1 (human); compound 1.0 µM): 7%
- residual activity (PRKCG (human); compound 0.1 µM): 117%
- residual activity (PRKCG (human); compound 1.0 µM): 71%
- residual activity (STK16 (human); compound 0.1 µM): 101%
- residual activity (STK16 (human); compound 1.0 µM): 42%
- residual activity (ZAP70 (human); compound 0.1 µM): 54%
- residual activity (ZAP70 (human); compound 1.0 µM): 22%
